Data reported in paper PMC11433764, “A Novel Compound from the Phenylsulfonylpiperazine Class: Evaluation of In Vitro Activity on Luminal Breast Cancer Cells” (Molecules, 2024).
Read-outs that look alike come from different tables or passages of the source.

What was measured:
Format in all cases: cell-based
MDA-MB-231 = assay: MTT cell viability, MDA-MB-231; design: key to SI MDA-MB-231: NS: the compound was more active in the non-tumor cell line; details: for IC50: Homo sapiens, MDA-MB-231, 48 h, MTT; for SI MDA-MB-231: IC50 MCF10A / IC50 MDA-MB-231
Procedure: (§1) Four different breast cells lines were used in this study: MCF-10A (non-tumorigenic), MCF7 (ER+ BC), MDA-MB453 (HER2+ BC) and MDA-MB231 (TNBC). All lineages were obtained from the American Type Culture Collection (ATCC; Manassas, VA, USA) and maintained at a temperature of 37 °C according to the supplier’s recommendations. Only MDA-MB231 cells were not kept in an atmosphere of 5% CO2. MCF-10A was grown in Dulbecco’s Modified Eagle’s Medium (DMEM F12, Gibco, ThermoFisher Scientific, Waltham, MA, USA) supplemented with 20 ng/mL epidermal growth factor (Gibco, ThermoFisher Scientific, Waltham, MA, USA), 0.5 μg/mL hydrocortisone (Sigma-Aldrich, Sigma-Aldrich, St. Louis, MO, USA) and 10 μg/mL insulin (Gibco, ThermoFisher Scientific, Waltham, MA, USA). MCF7 was cultivated in Roswell Park Memorial Institute Medium (RPMI-1640, Gibco, ThermoFisher Scientific, Waltham, MA, USA), MDA-MB453 in IMDM and MDA-MB231 in Leibovitz’s medium (L-15, Gibco, ThermoFisher Scientific, Waltham, MA, USA). All media were supplemented with 10% fetal bovine serum (FBS, Gibco, ThermoFisher Scientific, Waltham, MA, USA) and 50 µg/mL of gentamicin (Cultilab, Campinas, SP, Brazil). The cells were confirmed to be free of mycoplasma and passaged using a 0.25% trypsin-EDTA solution when confluency reached 80–90%.
(§2) Cell viability was determined by spectrophotometric quantification of MTT (3-[4,5-dimethyl-thiazol-2-yl]-2,5-diphenyltetrazolium bromide—Invitrogen. Waltham, MA, USA) reduction to formazan crystals. Cells were seeded at the density of 1 × 10^4 cells/well (MCF-10A, MDA-MB453), 1.5 × 10^4 cells/well (MDA-MB231) and 3 × 10^3 cells/well (MCF7) in 96-well culture dishes and incubated with different concentrations of the compounds (1.25, 2.5, 5, 10, 20, 40, 80 and 160 µM) for 48 h. The medium was than replaced by MTT solution (0.5 mg/mL) and plates were kept at 37 °C for 4 h. After the aspiration of the media, the formazan crystals were diluted with 100 μL of dimethyl-sulfoxide (DMSO)/well and the absorbance at 570 nm was measured using a spectrophotometer (Thermo Plate TP-Reader, Waltham, MA, USA). Cytotoxicity was calculated using the following formula: Cytotoxicity (%) = [absorbance of cells treated with the compounds/absorbance of cells treated with DMSO) × 100]. The IC50 was determined for each compound and was defined as the concentration required to inhibit 50% of cell growth, compared to the control sample (cells treated with DMSO 0.05%).
(§3) Data were presented as the mean ± standard deviation (SD) and analyzed using GraphPad Prism 9.0 software (GraphPad Software Inc., La Jolla, CA, USA). All data were assayed in triplicate. Statistical analysis was performed using one-way ANOVA, Tukey´s HSD post hoc test and Student’s t-test. The IC50 was calculated using non-linear regression and the selectivity index (SI) was calculated by the ratio between the IC50 values corresponding to the non-tumor cell lineage (MCF-10A) and the IC50 values corresponding to the BC cell lines. Statistical significance was accepted at p values < 0.05.

MCF-10A = assay: MTT cell viability, non-tumor cell line MCF-10A; details: 48 h; for IC50: Homo sapiens, MCF-10A; for Cytotoxicity to the MCF-10A cell line (in words): up to 160 μM
Procedure: as §1, §2, §3

MCF7 = assay: MTT cell viability, MCF7; design: key to SI MCF7: NS: the compound was more active in the non-tumor cell line; details: for IC50: Homo sapiens, MCF7, 48 h, MTT; for SI MCF7: IC50 MCF10A / IC50 MCF7
Procedure: as §1, §2, §3

MDA-MB-453 = assay: MTT cell viability, MDA-MB-453; design: key to SI MDA-MB-453: NS: the compound was more active in the non-tumor cell line; details: for IC50: Homo sapiens, MDA-MB-453, 48 h, MTT; for SI MDA-MB-453: IC50 MCF10A / IC50 MDA-MB-453
Procedure: as §1, §2, §3

[1] = tested on: tumor cells MCF7, MDA-MB-453 and MDA-MB-231; assay: MTT cell viability, tumor cells (stated collectively); details: for IC50: 48 h, MTT, tumor cells stated collectively
Procedure: as §1, §2, §3

[2] = read-out: IC50 MD-AMB 231 (Table S1)
[3] = read-out: IC50 MCF-10A (Table S1)
[4] = read-out: IC50 MD-AMB 453 (Table S1)
[5] = 1.25–160 μM, read-out: IC50 MDA-MB-231
[6] = 1.25–160 μM, read-out: IC50 MCF-10A
[7] = 1.25–160 μM, read-out: IC50 MCF7
[8] = 1.25–160 μM, read-out: IC50 MDA-MB-453

SMILES | IC50 (MDA-MB-231; [2]) | IC50 (MCF-10A; [3]) | IC50 (MCF7; read-out: IC50 MCF7 (Table S1)) | IC50 (MDA-MB-453; [4]) | IC50 (MDA-MB-231; [5]) | SI MDA-MB-231 (MDA-MB-231) | IC50 (MCF-10A; [6]) | IC50 (MCF7; [7]) | SI MCF7 (MCF7) | IC50 (MDA-MB-453; [8]) | SI MDA-MB-453 (MDA-MB-453) | Selectivity for tumor cells over MCF-10A (in words) [1] | IC50 [1] | Cytotoxicity to the MCF-10A cell line (in words) (MCF-10A)
O=S(=O)(c1ccc(Cl)cc1)N1CCN(c2ccc(O)cc2)CC1 [Compound 20] | > 160 µM | > 160 µM | > 160 µM | > 160 µM | – | – | – | – | – | – | – | – | – | –
O=S(=O)(c1ccc(Cl)cc1)N1CCNCC1 [Compound 13] | > 160 µM | > 160 µM | > 160 µM | > 160 µM | – | – | – | – | – | – | – | – | – | –
O=S(=O)(c1ccc(Cl)cc1)N1CCN(c2ccc(CO)cn2)CC1 [Compound 7] | – | – | – | – | 107 µM | 0.85 | 91.2 µM | > 160 µM | NS | > 160 µM | NS | – | – | –
Cc1ccc(S(=O)(=O)N2CCN(c3ccc(C(=O)N(C)C)cn3)CC2)cc1 [Compound 14] | > 160 µM | > 160 µM | > 160 µM | > 160 µM | – | – | – | – | – | – | – | – | – | –
CN(C)Cc1ccc(N2CCN(S(=O)(=O)c3ccc(F)cc3)CC2)nc1 [Compound 11] | – | – | – | – | > 160 µM | – | > 160 µM | 20 µM | – | 109 µM | >1.47 | – | – | –
CN(C)CCOc1ccc(N2CCN(S(=O)(=O)c3ccc(Cl)cc3)CC2)cc1 [Compound 12] | – | – | – | – | > 160 µM | NS | 68.3 µM | 49.9 µM | 1.37 | 136 µM | NS | not selective | < 50 µM | –
O=C(c1ccc(N2CCN(S(=O)(=O)c3ccc(Cl)cc3)CC2)nc1)N1CCCC1 [Compound 8] | – | – | – | – | 135 µM | NS | 86 µM | 154 µM | NS | 92.5 µM | NS | – | – | –
CN(C)CCOc1ccc(C(=O)N2CCN(S(=O)(=O)c3ccc(Cl)cc3)CC2)cc1 [Compound 2] | – | – | – | – | 61.3 µM | 1.44 | 88.2 µM | > 160 µM | NS | 50.5 µM | 1.75 | – | – | –
CN(C)CCNc1ccc(C(=O)N2CCN(S(=O)(=O)c3ccc(Cl)cc3)CC2)cn1 [Compound 5] | – | – | – | – | > 160 µM | – | > 160 µM | 82.9 µM | >1.93 | > 160 µM | – | – | > 50 µM | not cytotoxic
CCOC(=O)c1ccc(N2CCN(S(=O)(=O)c3ccc(Cl)cc3)CC2)nc1 [Compound 6] | – | – | – | – | 53.1 µM | >3.01 | > 160 µM | > 160 µM | – | > 160 µM | – | – | > 50 µM | not cytotoxic
CN(C)C(=O)c1ccc(N2CCN(S(=O)(=O)c3ccccc3)CC2)nc1 [Compound 15] | > 160 µM | > 160 µM | > 160 µM | > 160 µM | – | – | – | – | – | – | – | – | – | –
CN1CCN(C(=O)c2ccc(N3CCN(S(=O)(=O)c4ccc(Cl)cc4)CC3)nc2)CC1 [Compound 18] | > 160 µM | > 160 µM | > 160 µM | > 160 µM | – | – | – | – | – | – | – | – | – | –
CN(C)C(=O)c1ccc(N2CCN(S(=O)(=O)c3ccc(Cl)cc3)CC2)nc1 [Compound 9] | – | – | – | – | > 160 µM | NS | 63.9 µM | > 160 µM | NS | > 160 µM | NS | – | – | –
O=S(=O)(c1ccc(F)cc1)N1CCN(c2ccccc2)CC1 [Compound 19] | > 160 µM | > 160 µM | > 160 µM | > 160 µM | – | – | – | – | – | – | – | – | – | –
O=C(c1ccc(N2CCN(S(=O)(=O)c3ccc(Cl)cc3)CC2)nc1)N1CCOCC1 [Compound 17] | > 160 µM | > 160 µM | > 160 µM | > 160 µM | – | – | – | – | – | – | – | – | – | –
O=C(c1ccc(Cl)nc1)N1CCN(S(=O)(=O)c2ccc(Cl)cc2)CC1 [Compound 4] | – | – | – | – | 112 µM | >1.42 | > 160 µM | > 160 µM | – | > 160 µM | – | – | > 50 µM | not cytotoxic
N#Cc1ccc(C(=O)N2CCN(S(=O)(=O)c3ccc(Cl)cc3)CC2)cc1 [Compound 1] | – | – | – | – | 84.9 µM | >1.88 | > 160 µM | > 160 µM | – | > 160 µM | – | – | > 50 µM | not cytotoxic
CN(C)Cc1ccc(N2CCN(S(=O)(=O)c3ccc(Cl)cc3)CC2)nc1 [Compound 10] | – | – | – | – | > 160 µM | NS | 109 µM | 62 µM | 1.75 | 48.4 µM | 2.25 | – | < 50 µM | –
O=C(O)c1ccc(N2CCN(S(=O)(=O)c3ccc(Cl)cc3)CC2)nc1 [Compound 16] | > 160 µM | > 160 µM | > 160 µM | > 160 µM | – | – | – | – | – | – | – | – | – | –
